Here are results for 4 compounds from US10711000B2 (Fronthera U.S. Pharmaceuticals LLC, priority 2018, dated 2020).

The nature of data set [1]: Metabolic stability in human hepatocytes. It counts as in vitro ADME. The following applies: cryopreserved human hepatocytes 0.5 million/mL, compound 1 μM. How it is done:
The metabolic stability was examined in cryopreserved human hepatocytes. Compound (1 μM) was mixed with human hepatocytes at 0.5 million/mL, and a small aliquot was taken at 0, 15, 30, 60 and 90 minutes for LC/MS/MS analysis. Intrinsic clearance and half-time were calculated.

For data set [2], the target named is T1, CYP 2D6 (Homo sapiens, UniProt P10635).
T1 construct: from tissue; host or cells: human liver microsomes
T1 sequence (P10635 whole entry): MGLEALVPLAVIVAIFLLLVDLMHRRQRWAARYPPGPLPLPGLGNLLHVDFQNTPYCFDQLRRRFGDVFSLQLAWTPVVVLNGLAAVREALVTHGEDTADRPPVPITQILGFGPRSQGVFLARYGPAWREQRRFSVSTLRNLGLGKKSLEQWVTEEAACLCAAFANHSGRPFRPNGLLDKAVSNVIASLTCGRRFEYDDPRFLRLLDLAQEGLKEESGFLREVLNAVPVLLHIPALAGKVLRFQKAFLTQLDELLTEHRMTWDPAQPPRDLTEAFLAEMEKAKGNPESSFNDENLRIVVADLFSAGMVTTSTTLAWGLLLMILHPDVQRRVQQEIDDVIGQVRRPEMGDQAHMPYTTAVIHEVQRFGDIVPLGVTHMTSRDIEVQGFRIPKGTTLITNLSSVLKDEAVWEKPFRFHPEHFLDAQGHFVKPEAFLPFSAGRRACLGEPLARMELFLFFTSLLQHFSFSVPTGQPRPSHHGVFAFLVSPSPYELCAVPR
Description: CYP inhibition in human liver microsome. It counts as in vitro ADME. The following applies: human liver microsomes, substrate dextromethorphan (5 μM); compounds diluted 1:3 starting at 50 μM; read-out: IC50 in CYP isozyme 2D6. How it is done: (§1) Test compounds were evaluated for CYP inhibition using human liver microsomes (HLM). Test compounds were 1:3 serially diluted starting at 50 μM to generate 7 different concentrations. After incubation of diluted test compounds with HLM, a substrate cocktail composed of phenacetin (10 μM), amodiaquine (2 μM), diclofenac (5 μM), s-mephenytoin (30 μM), dextromethorphan (5 μM), and midazolam (2 μM) was added to check the remaining CYP activity for CYP 1A2, 2C8, 2C9, 2C19, 2D6 and 3A4. The CYP activity was measured by detecting the peak area of individual metabolites of know CYP substrates using LC/MS/MS. A percentage of inhibition of CYP was calculated at each final concentration of test compound, through which an IC50 was fitted to represent the inhibition potential.

In data set [3] the target is T2, CYP 2C19 (Homo sapiens, UniProt P33261).
T2 construct: from tissue; host or cells: human liver microsomes
T2 sequence (P33261 whole entry): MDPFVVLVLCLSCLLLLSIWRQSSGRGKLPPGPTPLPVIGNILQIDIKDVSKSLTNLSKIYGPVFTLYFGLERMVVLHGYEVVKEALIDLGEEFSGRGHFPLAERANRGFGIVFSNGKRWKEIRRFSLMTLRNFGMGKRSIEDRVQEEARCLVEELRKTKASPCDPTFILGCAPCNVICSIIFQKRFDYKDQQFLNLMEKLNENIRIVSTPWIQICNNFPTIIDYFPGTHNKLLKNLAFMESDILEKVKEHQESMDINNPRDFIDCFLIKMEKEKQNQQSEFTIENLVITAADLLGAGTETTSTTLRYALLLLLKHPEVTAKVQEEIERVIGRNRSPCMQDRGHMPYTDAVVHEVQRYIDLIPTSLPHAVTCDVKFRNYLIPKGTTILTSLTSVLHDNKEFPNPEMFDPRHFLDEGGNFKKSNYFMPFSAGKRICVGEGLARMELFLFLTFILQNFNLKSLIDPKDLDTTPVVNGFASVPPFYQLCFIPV
The data set can be described thus: CYP inhibition in human liver microsome. Format: in vitro ADME. Conditions: human liver microsomes, substrate s-mephenytoin (30 μM); compounds diluted 1:3 starting at 50 μM; read-out: IC50 in CYP isozyme 2C19. How it is done: as §1

The target of data set [4] is T3, CYP 1A2 (Homo sapiens, UniProt P05177).
T3 construct: from tissue; host or cells: human liver microsomes
T3 sequence (P05177 1-516): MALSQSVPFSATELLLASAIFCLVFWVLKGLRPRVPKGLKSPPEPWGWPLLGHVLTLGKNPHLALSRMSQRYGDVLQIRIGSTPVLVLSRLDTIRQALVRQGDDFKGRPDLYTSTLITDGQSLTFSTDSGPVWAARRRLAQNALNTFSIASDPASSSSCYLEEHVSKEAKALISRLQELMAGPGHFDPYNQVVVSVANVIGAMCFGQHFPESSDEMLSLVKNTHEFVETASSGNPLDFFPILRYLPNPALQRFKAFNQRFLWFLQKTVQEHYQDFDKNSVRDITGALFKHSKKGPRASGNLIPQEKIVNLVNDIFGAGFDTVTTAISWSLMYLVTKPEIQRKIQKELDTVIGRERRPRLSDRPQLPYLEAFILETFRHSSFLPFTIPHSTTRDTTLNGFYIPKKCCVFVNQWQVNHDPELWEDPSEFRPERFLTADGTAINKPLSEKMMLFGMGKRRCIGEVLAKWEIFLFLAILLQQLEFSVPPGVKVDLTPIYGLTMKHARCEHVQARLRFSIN
Description: CYP inhibition in human liver microsome. It counts as in vitro ADME. Conditions: human liver microsomes, substrate phenacetin (10 μM); compounds diluted 1:3 starting at 50 μM; read-out: IC50 in CYP isozyme 1A2. How it is done:
as §1
In general terms: Liver microsomes are vesicles of endoplasmic reticulum, rich in cytochrome P450 enzymes.

Data set [5] addresses T4, CYP 2C9 (Homo sapiens, UniProt P11712).
T4 construct: from tissue; host or cells: human liver microsomes
Description: CYP inhibition in human liver microsome. It counts as in vitro ADME. Conditions: human liver microsomes, substrate diclofenac (5 μM); compounds diluted 1:3 starting at 50 μM; read-out: IC50 in CYP isozyme 2C9. How it is done:
as §1

Data set [6] deals with T5, CYP 3A4 (Homo sapiens, UniProt P08684).
T5 construct: from tissue; host or cells: human liver microsomes
T5 sequence (P08684 whole entry): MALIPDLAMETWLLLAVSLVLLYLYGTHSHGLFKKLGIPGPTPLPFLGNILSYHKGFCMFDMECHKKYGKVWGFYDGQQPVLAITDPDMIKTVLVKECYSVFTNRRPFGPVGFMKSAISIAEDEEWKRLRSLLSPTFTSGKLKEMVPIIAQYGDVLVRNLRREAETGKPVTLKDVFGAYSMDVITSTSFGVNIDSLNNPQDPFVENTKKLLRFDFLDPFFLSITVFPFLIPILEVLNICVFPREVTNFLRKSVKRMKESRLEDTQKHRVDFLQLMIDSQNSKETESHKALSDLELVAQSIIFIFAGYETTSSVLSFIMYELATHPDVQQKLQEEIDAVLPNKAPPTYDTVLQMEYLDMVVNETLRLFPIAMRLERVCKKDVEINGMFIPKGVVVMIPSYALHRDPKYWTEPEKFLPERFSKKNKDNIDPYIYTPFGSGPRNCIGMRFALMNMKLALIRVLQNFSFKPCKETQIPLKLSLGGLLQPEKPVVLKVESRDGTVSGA
The data set can be described thus: CYP inhibition in human liver microsome. Format: in vitro ADME. Conditions: human liver microsomes, substrate midazolam (2 μM); compounds diluted 1:3 starting at 50 μM; read-out: IC50 in CYP isozyme 3A4. How it is done: as §1

Data set [7] has as its target T6, Autotaxin (Homo sapiens, UniProt Q13822).
T6 construct: from tissue; host or cells: pooled human plasma
Description: LPA formation in pooled human plasma (ex vivo autotaxin inhibition). Format: biochemical. The following applies: 2 hours incubation. An outline of the steps:
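Ex vivo: LPA 18:2 and 20:4 levels in compound-treated versus untreated pooled human plasma after 2 h incubation, measured by butanol extraction and negative-mode MRM LC/MS/MS against calibration standards. IC50 from non-linear fit of inhibition versus concentration.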

Data set [8] can be described thus: Pharmacokinetics in beagle dogs. It counts as in vivo. The following applies: male, dog, plasma, iv, I.V. (1 mg/kg).
The mark [9] stands for this setting: LPA 18:2 by LC/MS/MS, read-out: LPA formation (18:2) (IC50).
The mark [10] stands for this setting: LPA 20:4 by LC/MS/MS, read-out: LPA formation (20:4) (IC50).

Where two headings read alike, the source gives them in different places.

T4 sequence (P11712 whole entry): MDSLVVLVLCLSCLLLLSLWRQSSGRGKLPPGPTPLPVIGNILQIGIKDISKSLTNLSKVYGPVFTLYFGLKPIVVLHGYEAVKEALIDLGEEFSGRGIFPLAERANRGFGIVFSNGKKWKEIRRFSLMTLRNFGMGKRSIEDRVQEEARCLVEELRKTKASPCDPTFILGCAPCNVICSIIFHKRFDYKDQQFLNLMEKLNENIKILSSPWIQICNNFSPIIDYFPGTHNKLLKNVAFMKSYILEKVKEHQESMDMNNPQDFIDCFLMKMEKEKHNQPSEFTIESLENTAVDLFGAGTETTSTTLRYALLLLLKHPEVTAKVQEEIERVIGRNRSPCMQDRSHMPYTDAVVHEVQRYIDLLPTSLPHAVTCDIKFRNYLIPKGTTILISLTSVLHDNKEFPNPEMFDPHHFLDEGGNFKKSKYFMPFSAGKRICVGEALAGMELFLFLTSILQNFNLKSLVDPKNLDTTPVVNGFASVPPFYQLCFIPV

In the case of `CCn1nc2ncc(N3CC4(CN(C(=O)C5CCOCC5)C4)C3)cc2c1N(C)c1nc(-c2ccc(F)cc2)c(C#N)s1` [Compound 118, 2-((2-ethyl-5-(6-(tetrahydro-2H-pyran-4-carbonyl)-2,6-diazaspiro[3.3]heptan-2-yl)-2H-pyrazolo[3,4-b]pyridin-3-yl)(methyl)amino)-4-(4-fluorophenyl)thiazole-5-carbonitrile], the “metabolic stability (halftime in minutes), Human” value (“metabolic stability” for short) in data set [1] was above 216.8 min. For the same compound, the IC50 (in general, the concentration that inhibits the measured activity by half) in data set [2] is above 50 µM; in data set [3], above 50 µM; in data set [4], above 50 µM; in data set [5] it was 15.9 µM; in data set [6] it was above 50 µM; in data set [7] (setting [9]), at most 0.1 µM. In addition, the half-inhibitory concentration (IC50) in data set [7] (setting [10]) is at most 0.1 µM. The exposure (AUC) (as a rule, concentration integrated over time) in data set [8] stood at 2.19 ± 0.378 µg·h/mL. Moreover, the C0 in data set [8] turned out to be 0.786 ± 0.062 µg/mL. For the same compound, the clearance (usually a measure of how efficiently the substance is removed, as volume per time) in data set [8] was 0.461 ± 0.072 L/h/kg. In data set [8], the half-life – broadly, how long it takes for the measured level to halve – is 3.35 ± 0.6 h.

`CCc1nn2cc(F)c(N3CCN(CC(=O)N4CC(O)C4)CC3)cc2c1N(C)c1nc(-c2ccc(F)cc2)c(C#N)s1` [Example 101, 2-[[2-ethyl-6-fluoro-5-[4-[2-(3-hydroxyazetidin-1-yl)-2-oxo-ethyl]piperazin-1-yl]pyrazolo[1,5-a]pyridin-3-yl]-methyl-amino]-4-(4-fluorophenyl)thiazole-5-carbonitrile]: the “metabolic stability” value in data set [1] was above 216.8 min. In addition, the IC50 in data set [2] is above 50 µM; in data set [3], 45.5 µM; in data set [4] it was above 50 µM; in data set [5] it was 17.3 µM; in data set [6], above 50 µM; in data set [7] (setting [9]), at most 0.1 µM. In addition, in data set [7] (setting [10]), the IC50 was at most 0.1 µM. Besides, the AUC in data set [8] was 10.7 ± 1.81 µg·h/mL. Moreover, the C0 in data set [8] amounted to 2.29 ± 0.172 µg/mL. Moreover, the clearance in data set [8] worked out at 0.0918 ± 0.0162 L/h/kg. Besides, the half-life in data set [8] is 5.06 ± 0.85 h.

For the compound `CCc1nn2cc(F)c(N3CC4(CN(C(=O)[C@H]5CCOC5)C4)C3)cc2c1N(C)c1nc(-c2ccc(F)cc2)c(C#N)s1` [Example 102, 2-[[2-ethyl-6-fluoro-5-[2-[(3S)-tetrahydrofuran-3-carbonyl]-2,6-diazaspiro[3.3]heptan-6-yl]pyrazolo[1,5-a]pyridin-3-yl]-methyl-amino]-4-(4-fluorophenyl)thiazole-5-carbonitrile], the “metabolic stability” value in data set [1] is 76.6 min. Besides, the IC50 in data set [2] was above 50 µM; in data set [3] it was 11.9 µM; in data set [4], 13.9 µM; in data set [5], 5.69 µM; in data set [6], above 50 µM; in data set [7] (setting [9]) it was at most 0.1 µM. Besides, the IC50 in data set [7] (setting [10]) was at most 0.1 µM. Moreover, in data set [8], the area under the curve (AUC) worked out at 6.48 ± 0.703 µg·h/mL. The compound also displayed a C0 in data set [8] of 1.07 ± 0.0344 µg/mL. In data set [8], the clearance was 0.111 ± 0.0168 L/h/kg. The half-life in data set [8] was 14.8 ± 0.57 h.

`CCc1nc2c(C)cc(N3CCN(CC(=O)N4CC(O)C4)CC3)cn2c1N(C)c1nc(-c2ccc(F)cc2)c(C#N)s1` [GLPG1690]: the “metabolic stability” value in data set [1] came to 117.9 min. The IC50 is above 50 µM in data set [2]; 40.2 µM in data set [3]; above 50 µM in data set [4]; 16.7 µM in data set [5]; 13.5 µM in data set [6]. Also, the area under the curve (AUC) in data set [8] stood at 8.65 ± 0.328 µg·h/mL. In addition, in data set [8], the C0 was found to be 5.12 ± 1.39 µg/mL. The same compound registered a clearance in data set [8] of 0.115 ± 0.0042 L/h/kg. The compound also gave a half-life in data set [8] of 2.11 ± 1.23 h.
